# Data as given in ChEMBL document CHEMBL3046281, “Nitrogen Analogues of Aldrin as Noncompetitive Antagonists of GABAA Receptor” (J Pestic Sci, 1995).
# Activity calls are given as the source filed them. The rule behind the calls is not given here.
# Experiments:
# [1] = tested on: Musca domestica; experiment: Insecticidal activity against WHO susceptible Musca domestica (house fly) assessed as compound level causing mortality per fly applied through topical application; type: functional
# [2] = target: GABA-A receptor; anion channel (Rattus norvegicus) (UniProt O09028+P15431+P18506+P18508+P19969+P20236+P23574+P23576+P28471+P28473+P30191+P62813+P63079+P63138+Q91ZM7+Q9ES14); experiment: Competitive inhibition of [35S]TBPS binding to gamma-aminobutyric acid type-A receptor in Rattus norvegicus (rat) brain membranes at 50 nM incubated for 90 min by Scatchard plot; conditions: Membrane
# [3] = target: GABA-A receptor; anion channel; experiment: Displacement of [35S]TBPS from gamma-aminobutyric acid type-A receptor in Rattus norvegicus (rat) brain membranes incubated for 90 min by liquid scintillation counting method; parameters: species or system Membrane
SMILES,LD50 [1],inhibition [2],IC50 [3]
ClC1=C(Cl)[C@]2(Cl)[C@H]3[C@H]([C@@H]4C[C@H]3N=N4)[C@@]1(Cl)C2(Cl)Cl,2.8 ng,Active,48.4 nM
ClC1=C(Cl)[C@]2(Cl)[C@@H]3[C@@H]4CC[C@@H](C4)[C@@H]3[C@@]1(Cl)C2(Cl)Cl [REL-ALDRIN],18.5 ng,,53.7 nM
[O-][N+]1=N[C@@H]2C[C@H]1[C@H]1[C@@H]2[C@@]2(Cl)C(Cl)=C(Cl)[C@]1(Cl)C2(Cl)Cl (relative stereo),3.1 ng,,119 nM
